The text below walks through data of US20250354125A1, “HIGH-[…]-TERM CULTURED E[…] WITH ANGIOGENESIS” (priority 2024, published 2025).

Assay [1] relates to HUVEC Endothelial organoids. Description: Organoid stimulation with IL-1β and TGF-β and treatment with PIEZO1 or ROCK inhibitor; EndMT and endothelial marker expression. It counts as cell-based, human. Particulars: FIG. 14a/14b; for TAGLN expression / fibronectin expression: EndMT marker. On the procedure:
(§1) HUVEC Endothelial organoids were seeded in 384-well U-bottom ULA plates (S-bio #MS-9384UZ, lot 20839306) and centrifuged at 1,000 rpm for 5 min (142 rcf, Thermo Scientific Sorvall ST16 centrifuge). Endothelial organoid seeding volume was 25 μL per well. The HUVEC organoid seeding solution consisted of 120,000 HUVEC cells/mL, 160 μg/mL Matrigel (Corning #356-231, 10.7 mg/mL), 10% FBS (GeminiBio #900-108) and 0.24% methylcellulose (Methocel, Sigma Aldrich #94378). A key procedure being to add cold Matrigel into warm media to induce gelling.

Assay [2] has as its system HUVEC Endothelial organoids. Description: LPS and TNF-α stimulated endothelial organoid; E-selectin immunofluorescence and bright field imaging. It is filed as cell-based, human. On the procedure: as §1
Fixed HUVEC Organoids were washed with PBS and permeabilized with 0.1% Tween in PBS for 10 min at 4° C. Samples were incubated with Organoid washing buffer (OWB, 0.2% BSA/0.1% Triton-X-100 in PBS) to prevent non-specific binding for 15 min at 4° C. Samples were incubated with primary antibodies in OWB at 4° C. overnight. Primary antibodies include: SELE Rabbit pAb (ABclonal, #A2191, Lot 5500024697, 1:1,000 dilution), Human VE-Cadherin Antibody (R&D systems, #AF938, 1:40 dilution) and Mouse anti-CD34 antibody (Clone QBEND/10, Invitrogen #MA1-10202, 1:500 dilution). Samples were washed with OWB and incubated with secondary antibodies or Alexa Fluor 647 Phalloidin (Invitrogen, #A22287, Lot 2170291, 1:400 dilution) in OWB for 2 hours at room temperature (RT). Secondary antibodies include: Goat anti-Rabbit Alexa Fluor 647 (Invitrogen, #A-21244, Lot 2134003, 1:500 dilution), Donkey anti-rat Alexa Fluor 488 (1:2,000 dilution), Goat anti-mouse Alexa Fluor 488 (Thermo Fisher, #A-11001, 1:2,000 dilution) and Donkey anti-mouse Alexa Fluor 568 (Invitrogen #A10037, 1:1,000 dilution). Organoids were washed with PBS and incubated with DAPI in PBS for 30 min at RT and imaged using Spinning disk Confocal microscope (Nikon, CSU-W1) with 10×, 20× and 60× magnification. E-selectin, Integrin α6 and CD34 stained organoids were performed without permeabilization step, VE-Cadherin and Phalloidin stained organoids were performed with permeabilization step
There is currently a lot of research being conducted on endothelial cells in relation to inflammation. […]

Ends that are not written are not given here.

Take “IL-1β: cytokine used for organoid stimulation; its effect indicated an inflammatory response”: in assay [1], the TAGLN expression result is listed as “without affecting fibronectin or TAGLN levels”, the fibronectin expression result is “without affecting fibronectin” and the PECAM1 expression result is listed as “reduced PECAM1 expression”.
For `C[C@@H](N)[C@H]1CC[C@H](C(=O)Nc2ccncc2)CC1` [Y-27632] the same measures were “TAGLN expression remained unchanged”, “elevated fibronectin levels” and “increased PECAM1 expression”.
As for TNF-α, the “changes in the bright field (BF)” value in assay [2] (after 24 hours of treatment) was “no significant changes were observed”. Also, the “E-selectin signal on the surface of the organoids” value in assay [2] (fluorescent staining after 24 hours of treatment, compared to the control group, FIG. 11) was “showed expression of the E-selectin signal”. Besides, the “E-selectin fluorescence in relation to concentration” value in assay [2] (fluorescent staining, FIG. 11) is on record as “increase in fluorescence proportional to their concentrations”.
Consider “GsMTx4: PIEZO1 inhibitor (GCLEFWWKCNPNDDKCCRPKLKCSKLFKLCNFSF; ends and bridges not checked; cysteine pairing not given here; UniProt Q7YT39 47-80, looked up)”, for which, in assay [1], the TAGLN expression entry was “did not alter TAGLN” and the fibronectin expression entry was “decreased fibronectin expression”.
